For orientation: melting point means the temperature, or range, at which the solid turns liquid.

`CC(C)(C)OC(=O)N1C[C@@H]2OCc3c(-c4ccccc4)nnn3[C@H]2C1` [Example 55, (5aS,8aS)-tert-butyl 3-phenyl-5a,6,8,8a-tetrahydropyrrolo[3,4-b][1,2,3] triazolo[1,5-d][1,4]oxazine-7(4H)-carboxylate]: the melting point was in the range of 236 to 237 °C. In the case of `c1nnn2c1COC1CNC[C@H]12` (stereo partly shown), the melting point was 217 °C (dec.). `CCCCNC(=O)N1CC2OCc3cnnn3[C@@H]2C1` (stereo partly drawn) [Example 31, (5a,8a-trans)-N-butyl-5a,6,8,8a-tetrahydropyrrolo[3,4-b][1,2,3]triazolo[1,5-d][1,4]oxazine-7(4H)-carboxamide]: the melting point lay in the range of 194 to 195 °C. Regarding `Cc1nnn2c1CO[C@H]1CN(C(=O)OC(C)(C)C)C[C@@H]12` [Example 54, (5aS,8aS)-tert-butyl 3-methyl-5a,6,8,8a-tetrahydropyrrolo[3,4-b][1,2,3] triazolo[1,5-d][1,4]oxazine-7(4H)-carboxylate], the melting point was 195 to 196 °C. Under `CS(=O)(=O)N1CC2OCc3c(-c4ccccc4)nnn3[C@@H]2C1` (stereo partly shown) [Example 19, (5a,8a)-7-(methylsulfonyl)-3-phenyl-4,5a,6,7,8,8a-hexahydropyrrolo[3,4-b][1,2,3]triazolo[1,5-d][1,4]oxazine] stands 293 to 295 °C. `c1cnc(N2CC3OCc4cnnn4[C@@H]3C2)nc1` (stereo partly drawn) [Example 35, (5a,8a-trans)-7-(pyrimidin-2-yl)-4,5a,6,7,8,8a-hexahydropyrrolo[3,4-b][1,2,3]triazolo[1,5-d][1,4]oxazine] showed a melting point of 256 to 257 °C. Next, `c1ccc(N2CC3OCc4cnnn4[C@@H]3C2)nc1` (stereo partly drawn) [Example 44, (5a,8a-trans)-7-(pyridin-2-yl)-4,5a,6,7,8,8a-hexahydropyrrolo[3,4-b][1,2,3]triazolo[1,5-d][1,4]oxazine]: 216 °C (dec.); `CCN1CC2OCc3cnnn3[C@@H]2C1` (stereo partly shown): 59 to 60 °C; `O=C(OCc1ccccc1)N1CC2OCc3c(-c4ccccc4)nnn3[C@@H]2C1` (stereo partly drawn) [Example 34, (5a,8a-trans)-benzyl3-phenyl-5a,6,8,8a-tetrahydropyrrolo[3,4-b][1,2,3] triazolo[1,5-d][1,4]oxazine-7(4H)-carboxylate]: 209 to 212 °C. On to `O=S(=O)(c1ccc(F)cc1)N1CC2OCc3c(-c4ccccc4)nnn3[C@@H]2C1` (stereo partly drawn) [Example 20, (5a,8a-trans)-7-(4-fluorophenylsulfonyl)-3-phenyl-4,5a,6,7,8,8a-hexa hydropyrrolo[3,4-b][1,2,3]triazolo[1,5-d][1,4]oxazine], for which the melting point was 287 to 288 °C. Under `c1ccc(-c2nnn3c2COC2CN(c4ncccn4)C[C@H]23)cc1` (stereo partly drawn) [Example 40, (5a,8a-trans)-3-phenyl-7-(pyrimidin-2-yl)-4,5a,6,7,8,8a-hexahydro pyrrolo[3,4-b][1,2,3]triazolo[1,5-d][1,4]oxazine] stands 256 to 257 °C. In turn, `O=C(c1ccccc1)N1CC2OCc3cnnn3[C@@H]2C1` (stereo partly drawn) [Example 22, phenyl((5a,8a-trans)-5a,6,8,8a-tetrahydropyrrolo[3,4-b][1,2,3]triazolo[1,5-d][1,4]oxazin-7(4H)-yl)methanone] displayed a melting point of 173 to 174 °C. For `O=S(=O)(c1ccc(Br)cc1)N1CC2OCc3cnnn3[C@@H]2C1` (stereo partly drawn) [Example 15, (5a,8a-trans)-7-(4-bromophenylsulfonyl)-4,5a,6,7,8,8a-hexahydro pyrrolo[3,4-b][1,2,3]triazolo[1,5-d][1,4]oxazine], the melting point is 220 to 221 °C. Under `O=C(Nc1ccccc1)N1CC2OCc3cnnn3[C@@H]2C1` (stereo partly drawn) [Example 32, (5a,8a-trans)-N-phenyl-5a,6,8,8a-tetrahydropyrrolo[3,4-b][1,2,3] triazolo[1,5-d][1,4]oxazine-7(4H)-carboxamide] stands 227 to 228 °C. `O=S(=O)(c1ccccc1)N1CC2OCc3cnnn3[C@@H]2C1` (stereo partly drawn) [Example 16, (5a,8a-trans)-7-(phenylsulfonyl)-4,5a,6,7,8,8a-hexahydropyrrolo[3,4-b][1,2,3]triazolo[1,5-d][1,4]oxazine] registered a melting point of 168 to 170 °C. Under `CC(C)(C)OC(=O)N1C[C@@H]2OCc3c(-c4cccc(F)c4)nnn3[C@H]2C1` [Example 56, (5aS,8aS)-tert-butyl 3-(3-fluorophenyl)-5a,6,8,8a-tetrahydropyrrolo[3,4-b][1,2,3]triazolo[1,5-d][1,4]oxazine-7(4H)-carboxylate] stands 249 to 250 °C; under `O=C(c1ccccc1F)N1CC2OCc3cnnn3[C@@H]2C1` (stereo partly drawn) [Example 21, (2-fluorophenyl)((5a,8a-trans)-5a,6,8,8a-tetrahydropyrrolo[3,4-b][1,2,3]triazolo[1,5-d][1,4]oxazin-7(4H)-yl)methanone], 188 to 190 °C. Molecule `O=S(=O)(c1ccc(F)cc1)N1CC2OCc3cnnn3[C@@H]2C1` (stereo partly drawn) [Example 18, (5a,8a-trans)-7-(4-fluorophenylsulfonyl)-4,5a,6,7,8,8a-hexahydro pyrrolo[3,4-b][1,2,3]triazolo[1,5-d][1,4]oxazine] yielded a melting point of 208 to 209 °C. In the case of `O=C(c1cccs1)N1CC2OCc3c(-c4ccccc4)nnn3[C@@H]2C1` (stereo partly drawn) [Example 30, ((5a,8a-trans)-3-phenyl-5a,6,8,8a-tetrahydropyrrolo[3,4-b][1,2,3]triazolo[1,5-d][1,4]oxazin-7(4H)-yl)(thiophen-2-yl)methanone], the melting point was in the range of 248 to 249 °C. Next, `CC(C)(C)OC(=O)N1C[C@@H]2OCc3cnnn3[C@H]2C1` [Example 53, (5aS,8aS)-tert-butyl 5a,6,8,8a-tetrahydropyrrolo[3,4-b][1,2,3]triazolo[1,5-d][1,4]oxazine-7(4H)-carboxylate]: 155 to 157 °C. Under `O=C(Nc1ccccc1)N1CC2OCc3c(-c4ccccc4)nnn3[C@@H]2C1` (stereo partly drawn) [Example 33, (5a,8a-trans)-N,3-diphenyl-5a,6,8,8a-tetrahydropyrrolo[3,4-b][1,2,3] triazolo[1,5-d][1,4]oxazine-7(4H)-carboxamide] stands 275 to 277 °C; under `c1ccc(-c2nnn3c2COC2CN(c4ccccc4)C[C@H]23)cc1` (stereo partly drawn) [Example 45, (5a,8a-trans)-3,7-diphenyl-4,5a,6,7,8,8a-hexahydropyrrolo[3,4-b][1,2,3] triazolo[1,5-d][1,4]oxazine], 256 to 257 °C; under `COc1ccc(CN2CC3OCc4cnnn4[C@@H]3C2)cc1` (stereo partly drawn) [Example 1, (5a,8a-trans)-7-(4-methoxybenzyl)-4,5a,6,7,8,8a-hexahydropyrrolo[3,4-b][1,2,3]triazolo[1,5-d][1,4]oxazine], 150 to 151 °C. Next, `O=C(CCc1ccccc1)N1CC2OCc3cnnn3[C@@H]2C1` (stereo partly drawn) [Example 24, 3-phenyl-1-((5a,8a-trans)-5a,6,8,8a-tetrahydropyrrolo[3,4-b][1,2,3]triazolo[1,5-d][1,4]oxazin-7(4H)-yl)propan-1-one]: 134 to 135 °C; `O=C(c1ccccc1)N1CC2OCc3c(-c4ccccc4)nnn3[C@@H]2C1` (stereo partly drawn) [Example 27, phenyl((5a,8a-trans)-3-phenyl-5a,6,8,8a-tetrahydropyrrolo[3,4-b][1,2,3]triazolo[1,5-d][1,4]oxazin-7(4H)-yl)methanone]: 237 to 239 °C.

With `O=C(c1cccs1)N1CC2OCc3cnnn3[C@@H]2C1` (stereo partly drawn) [Example 26, ((5a,8a-trans)-5a,6,8,8a-tetrahydropyrrolo[3,4-b][1,2,3]triazolo[1,5-d][1,4]oxazin-7(4H)-yl)(thiophen-2-yl)methanone], the melting point fell in the range of 186 to 188 °C. Take `c1ccc(N2CC3OCc4cnnn4[C@@H]3C2)cc1` (stereo partly drawn) [Example 42, (5a,8a-trans)-7-phenyl-4,5a,6,7,8,8a-hexahydropyrrolo[3,4-b][1,2,3] triazolo[1,5-d][1,4]oxazine]: the melting point is 222 to 223 °C. Under `Clc1ccc(N2CC3OCc4cnnn4[C@@H]3C2)cc1` (stereo partly drawn) [Example 43, (5a,8a-trans)-7-(4-chlorophenyl)-4,5a,6,7,8,8a-hexahydropyrrolo[3,4-b][1,2,3]triazolo[1,5-d][1,4]oxazine] stands 238 °C (dec.); under `CC(C)(C)OC(=O)N1CC2OCc3c(-c4ccc(C(F)(F)F)cc4)nnn3[C@H]2C1` (stereo partly drawn) [Example 57, (5aS,8aS)-tert-butyl-3-(4-(trifluoromethyl)phenyl)-5a,6,8,8a-tetrahydropyrrolo[3,4-b][1,2,3]triazolo[1,5-c][1,4]oxazine-7(4H)-carboxylate], 238 to 239 °C; under `CS(=O)(=O)N1CC2OCc3cnnn3[C@@H]2C1` (stereo partly drawn) [Example 14, (5a,8a-trans)-7-(methylsulfonyl)-4,5a,6,7,8,8a-hexahydropyrrolo[3,4-b][1,2,3]triazolo[1,5-d][1,4]oxazine], 204 to 206 °C. `O=S(=O)(c1ccccc1F)N1CC2OCc3cnnn3[C@@H]2C1` (stereo partly drawn) [Example 17, (5a,8a-trans)-7-(2-fluorophenylsulfonyl)-4,5a,6,7,8,8a-hexahydro pyrrolo[3,4-b][1,2,3]triazolo[1,5-d][1,4]oxazine]: the melting point fell in the range of 178 to 180 °C.

The record behind these values is patent US8362011B2, “Tricyclic triazolic compounds” (Laboratories del Dr. Esteve, S.A., priority 2007, dated 2013).
